Laboratory results from patent US4927831A, “Spiro-isoquinoline-pyrrolidine tetrones and analogs thereof useful as aldose reductase inhibitors” (American Home Products, priority 1989, dated 1990).
Values joined by “and” are separate entries in the source; they are usually repeats but may differ in a detail not shown here. Equal values may be shown once. Read-outs that look alike come from different tables or passages of the source.

How the values were obtained:
aldose reductase = target: T1, aldose reductase (Bos taurus, UniProt P16116); assay: in vitro aldose reductase inhibition (modified Hayman and Kinoshita; enzyme from bovine lens); format: biochemical; details: read-out: % Inhibition IN VITRO; for inhibition at 0.1 µM: 10^-7 M
T1 construct: preparation of the enzyme from bovine lens; from tissue; host or cells: bovine lens
Procedure: Only two minor reagent changes were made: (a) The rinsing mixture was an aqueous 5% (w/v) trichloroacetic acid solution and (b) the stock solution was prepared by dissolving 25 mg of dulcitol in 100 ml of an aqueous trichloroacetic acid solution. [N.B.: For each experiment the average value found in the tissue from rats fed the glucose diet was subtracted from the individual values found in the corresponding tissue in galactose-fed rats to obtain the amount of polyol accumulated.] […] In the present case the procedure of Hayman and Kinoshita was modified in that the final chromatography step was omitted in the preparation of the enzyme from bovine lens. […] The figures under L and N represent the percentage decrease of dulcitol accumulation in the tissues of the lens and sciatic nerve, respectively, for treated rats as compared to untreated rats.

[1] = system: dulcitol accumulation in the lens; assay: % lowering of dulcitol accumulation in lens (L) of galactosemic rats; format: in vivo, Sprague-Dawley; design: key: NS: statistically nonsignificant change; details: 4 days
From the text: (§1) The aldose reductase inhibiting property of the compounds of this invention and the utilization of the compounds in preventing, diminishing and alleviating diabetic complications are demonstrable in experiments using galactosemic rats, see Dvornik et al., Science, 182, 1146 (1973). Such experiments are exemplified hereinbelow after the listing of the following general comments pertaining to these experiments:
(§2) (a) Four or more groups of six male rats, 50-70 g, Sprague-Dawley strain, were used. The first group, the control group, was fed a mixture of laboratory chow (rodent Laboratory Chow, Purina) and glucose at 20% (w/w %) concentration. An untreated galactosemic group was fed a similar diet in which galactose was substituted for glucose. The third group was fed a diet prepared by mixing a given amount of the test compound with the galactose containing diet. The concentration of galactose in the diet of the treated groups was the same as that for the untreated galactosemic group.
(§3) (b) After four days, the animals were killed by euthanization. Both the lens and sciatic nerve were removed, weighed and stored frozen for polyol determination.
(§4) (c) The polyol determination was performed by a modification of the procedure of M. Kraml and L. Cosyns, Clin. Biochem., 2,373 (1969). Only two minor reagent changes were made: (a) The rinsing mixture was an aqueous 5% (w/v) trichloroacetic acid solution and (b) the stock solution was prepared by dissolving 25 mg of dulcitol in 100 ml of an aqueous trichloroacetic acid solution. [N.B.: For each experiment the average value found in the tissue from rats fed the glucose diet was subtracted from the individual values found in the corresponding tissue in galactose-fed rats to obtain the amount of polyol accumulated.] The aldose reductase inhibiting effects of the compounds of formula (I) were also tested by employing an in vitro testing procedure similar to that described by S. Hayman and J.H. Kinoshita, J. Biol. Chem., 240,877 (1965). In the present case the procedure of Hayman and Kinoshita was modified in that the final chromatography step was omitted in the preparation of the enzyme from bovine lens.
(§5) The figures under L and N represent the percentage decrease of dulcitol accumulation in the tissues of the lens and sciatic nerve, respectively, for treated rats as compared to untreated rats.

[2] = system: dulcitol accumulation in the sciatic nerve; assay: % lowering of dulcitol accumulation in sciatic nerve (N) of galactosemic rats; format: in vivo, Sprague-Dawley; design: key: NS: statistically nonsignificant change; details: 4 days
From the text: as §1, §2, §3, §4, §5

| Compound | inhibition at 0.04 µM (aldose reductase; 4 × 10^-8 M) [%] | inhibition at 10 µM (aldose reductase; 10^-5 M) [%] | inhibition at 1 µM (aldose reductase; 10^-6 M) [%] | inhibition at 0.1 µM (aldose reductase) [%] | inhibition at 1 µM (aldose reductase) [%] | inhibition at 10 µM (aldose reductase) [%] | % Lowering Dulcitol Accumulation IN VIVO, L (lens) ([1]; 0.5 mg/kg in diet) | % Lowering Dulcitol Accumulation IN VIVO, N (sciatic nerve) ([2]; 0.5 mg/kg in diet) | also measured |
| --- | --- | --- | --- | --- | --- | --- | --- | --- | --- |
| O=C1CC2(C(=O)N1)C(=O)N(Cc1ccc(Br)cc1F)C(=O)c1ccc(Cl)cc12 (stereo not drawn) [[2-[(4-Bromo-2-fluorophenyl)methyl]-6-chloro]spiro[isoquinoline-4(1H),3'-pyrrolidine]-1,2',3,5'(2H)-tetrone] | 8 | 97 | 92 | 55 | – | – | – | – | % Lowering Dulcitol Accumulation IN VIVO, L (lens) ([1]; 0.6 mg/kg in diet): 9%; % Lowering Dulcitol Accumulation IN VIVO, N (sciatic nerve) ([2]; 0.6 mg/kg in diet): 29% |
| O=C1CC2(C(=O)N1)C(=O)N(Cc1ccc(Br)cc1F)C(=O)c1ccc(F)cc12 (stereo not drawn) [[2-[(4-Bromo-2-fluorophenyl)methyl]-6-fluoro]spiro[isoquinoline-4(1H),3'-pyrrolidine]-1,2',3,5'(2H)-tetrone] | – | – | – | – | 96 | 97 | NS | 82.9% and 92.1% | inhibition at 0.04 µM (aldose reductase): 38%; % Lowering Dulcitol Accumulation IN VIVO, L (lens) ([1]; 0.3 mg/kg in diet): NS; % Lowering Dulcitol Accumulation IN VIVO, L (lens) ([1]; 0.9 mg/kg in diet): NS; % Lowering Dulcitol Accumulation IN VIVO, N (sciatic nerve) ([2]; 0.3 mg/kg in diet): 39.7%; % Lowering Dulcitol Accumulation IN VIVO, N (sciatic nerve) ([2]; 0.9 mg/kg in diet): 93.5% |
| O=C1CC2(C(=O)N1)C(=O)N(Cc1ccc(Br)cc1F)C(=O)c1cc(Cl)ccc12 (stereo not drawn) [[2-[(4-Bromo-2-fluorophenyl)methyl]-7-chloro]spiro[isoquinoline-4(1H),3'-pyrrolidine]-1,2',3,5'(2H)-tetrone] | 25 | – | 92 | 42 | – | 96 | – | – | % Lowering Dulcitol Accumulation IN VIVO, L (lens) ([1]; 0.6 mg/kg in diet): NS; % Lowering Dulcitol Accumulation IN VIVO, N (sciatic nerve) ([2]; 0.6 mg/kg in diet): 63% |
| O=C1CC2(C(=O)N1)C(=O)N(Cc1ccc(Br)cc1F)C(=O)c1cc(F)ccc12 (stereo not drawn) [[2-[(4-Bromo-2-fluorophenyl)methyl]-7-fluoro]spiro[isoquinoline-4(1H),3'-pyrrolidine]-1,2'3,5'(2H)-tetrone] | 42 | 95 | – | 92 | 93 | – | NS | NS | % Lowering Dulcitol Accumulation IN VIVO, L (lens) ([1]; 1.0 mg/kg in diet): NS; % Lowering Dulcitol Accumulation IN VIVO, N (sciatic nerve) ([2]; 1.0 mg/kg in diet): 50.2% |
| COc1ccc2c(c1)C(=O)N(Cc1ccc(Br)cc1F)C(=O)C21CC(=O)NC1=O (stereo not drawn) [[2-[(4-Bromo-2-fluorophenyl)methyl]-7-methoxy]spiro[isoquinoline-4(1H),3'-pyrrolidine]-1,2',3,5'(2H)-tetrone] | 72 | 97 | – | 90 | 96 | – | – | – | % Lowering Dulcitol Accumulation IN VIVO, L (lens) ([1]; 25.7 mg/kg in diet): 45.3%; % Lowering Dulcitol Accumulation IN VIVO, N (sciatic nerve) ([2]; 25.7 mg/kg in diet): 88.1% |
| O=C1CC2(C(=O)N1)C(=O)N(Cc1ccc(Br)cc1F)C(=O)c1c(F)cccc12 (stereo not drawn) [[2-[(4-Bromo-2-fluorophenyl)methyl]-8-fluoro]spiro[isoquinoline-4(1H),3'-pyrrolidine]-1,2',3,5'(2H)-tetrone] | 43 | – | – | 92 | 94 | 96 | NS | 50.6% | % Lowering Dulcitol Accumulation IN VIVO, L (lens) ([1]; 1.0 mg/kg in diet): 16.3%; % Lowering Dulcitol Accumulation IN VIVO, N (sciatic nerve) ([2]; 1.0 mg/kg in diet): 57.6% |
| COc1cc2c(cc1Br)C1(CC(=O)NC1=O)C(=O)N(Cc1ccc(Br)cc1F)C2=O (stereo not drawn) [[6-Bromo-2-[(4-bromo-2-fluorophenyl)methyl]-7-methoxy]spiro[isoquinoline-4(1H),3'-pyrrolidine]-1,2',3,5'(2H)-tetrone] | 70 | 98 | 97 | 88 | – | – | NS | 55.2% | % Lowering Dulcitol Accumulation IN VIVO, L (lens) ([1]; 26.4 mg/kg in diet): 48.8%; % Lowering Dulcitol Accumulation IN VIVO, N (sciatic nerve) ([2]; 26.4 mg/kg in diet): 89.5% |
